Source: patent US20250277191A1, “METHODS AND COMPOSITIONS FOR CRYOPRESERVING SUBPOPULATIONS OF LYMPHOCYTES” (Ossium Health, Inc., priority 2022, published 2025)
“Also recorded” adds a separate entry of the source.

Assays:
[1] = tested on: Hematopoietic cells and bone marrow; test: CFU assay of bone marrow after thawing cells cryopreserved in DMSO; format: cell-based, human; settings: for BFU-E / CFU-E / CFU-GEMM / CFU-GM / total CFU: after thawing, average score from duplicate wells
Experimental: Bone marrow prior to DMSO addition (designated “QC1”) was washed and resuspended at a concentration of 8×10^6 cells/ml in Rinse Media. Cells were aliquoted and mixed with equal volumes of DMSO solutions to yield final concentrations of either 2.5, 5 or 10% DMSO in Rinse Media. A 2.5 ml volume of each preparation was aliquoted in triplicate to 5 ml cryovials. After equilibrating for 5 minutes, the cryovials were placed in a CryoMed Controlled Rate Freezer and frozen using the following program: • Step 1. −1° C./minute to −86° C. • Step 2. −20° C./minute to −150° C. • Step 3. Hold at −150° C. The vials were transferred to LN2 after 5 minutes at −150° C. The following day, cryovials containing cryopreserved cells were thawed in a 37° C. water bath and transferred to a biological safety cabinet after sanitizing with 70% alcohol. The cells were transferred to a centrifuge tube and pelleted. After removing the supernatant, the cells were resuspended in 12.5 ml of Selection Media. The tubes were centrifuged again and the cell pellet was resuspended in final volume of 25 ml of Selection Media. Total cell counts were obtained using a Sysmex Hematology Analyzer. CFU assays were also performed. Fresh and as well as previously cryopreserved hematopoietic cells and bone marrow preparations were analyzed by CFU assay. Given the limited sample size, statistical analysis could not be performed.

[2] = tested on: Hematopoietic cells and bone marrow; test: Flow cytometry of HSPC and lymphocyte subsets in cryopreserved bone marrow; format: cell-based, human
Experimental: Bone marrow prior to DMSO addition (designated “QC1”) was washed and resuspended at a concentration of 8×10^6 cells/ml in Rinse Media. Cells were aliquoted and mixed with equal volumes of DMSO solutions to yield final concentrations of either 2.5, 5 or 10% DMSO in Rinse Media. A 2.5 ml volume of each preparation was aliquoted in triplicate to 5 ml cryovials. After equilibrating for 5 minutes, the cryovials were placed in a CryoMed Controlled Rate Freezer and frozen using the following program: • Step 1. −1° C./minute to −86° C. • Step 2. −20° C./minute to −150° C. • Step 3. Hold at −150° C. The vials were transferred to LN2 after 5 minutes at −150° C. The following day, cryovials containing cryopreserved cells were thawed in a 37° C. water bath and transferred to a biological safety cabinet after sanitizing with 70% alcohol. The cells were transferred to a centrifuge tube and pelleted. After removing the supernatant, the cells were resuspended in 12.5 ml of Selection Media. The tubes were centrifuged again and the cell pellet was resuspended in final volume of 25 ml of Selection Media. Total cell counts were obtained using a Sysmex Hematology Analyzer. Flow cytometry was performed using non-cryopreserved Hematopoietic cells and bone marrow QC1 sample for comparison. Panel design for flow cytometry with the following panel of conjugated antibodies (see Table 1). Each tube was stained with the viability dye 7-AAD after antibody staining. [table]

With `C[S+](C)[O-]` [DMSO, dimethyl sulfoxide] the CFU potential ([1]; 10% DMSO compared to 2.5 or 5% DMSO, qualitative) was “significantly reduces”, the BFU-E ([1]; cryopreserved in 2.5% DMSO) was 11.5 and the CFU-E ([1]; cryopreserved in 2.5% DMSO) was 7.5. For the same molecule, the CFU-GEMM ([1]; cryopreserved in 2.5% DMSO) was 0.5, the CFU-GM ([1]; cryopreserved in 2.5% DMSO) was 7.5 and the “total CFU” value ([1]; cryopreserved in 2.5% DMSO) was 27. For the same molecule, the BFU-E ([1]; cryopreserved in 5% DMSO) was 11.5, the CFU-E ([1]; cryopreserved in 5% DMSO) was 6 and the CFU-GEMM ([1]; cryopreserved in 5% DMSO) was 0.5. For the same molecule, the CFU-GM ([1]; cryopreserved in 5% DMSO) was 9, the “total CFU” value ([1]; cryopreserved in 5% DMSO) was 27 and the BFU-E ([1]; cryopreserved in 10% DMSO) was 4. It also gave a CFU-E ([1]; cryopreserved in 10% DMSO) of 3.5, a CFU-GEMM ([1]; cryopreserved in 10% DMSO) of 0 and a CFU-GM ([1]; cryopreserved in 10% DMSO) of 0. The “total CFU” value ([1]; cryopreserved in 10% DMSO) was 7.5, the “total CD3+ T cells” value ([2]; 2.5% DMSO compared to either 5 or 10%, FIG. 2B) was “reduced” and the “Natural Killer cells (CD3-CD19-CD56+)” value ([2]; 2.5 or 5% DMSO compared with 10%, FIG. 2F) was “highest”. The “percentage of viable CD45LOCD34+ HSPC in thawed products” value ([2]; 5% DMSO compared with 2.5 and 10% DMSO, FIG. 2A) was “highest; also recorded: enhanced”, the “percentage of CD3+CD4-CD8-gd TCR+ gd T cells” value ([2]; 10% DMSO compared to 2.5 and 5%, FIG. 2C) was “lowest” and the “gd T cells, sensitivity to DMSO concentration” value ([2]; across 2.5, 5 and 10% DMSO) was “relatively insensitive”. The “percentage of CD4+CDRA+CCR7+ naïve T cells” value ([2]; across 2.5, 5 and 10% DMSO, FIG. 2D) was “increased with increasing DMSO concentrations; also recorded: lowest with the lower DMSO concentrations”, the “naïve CD8+ T cells” value ([2]; across 2.5, 5 and 10% DMSO, significant between 2.5 and 10%, FIG. 2E) was “trend in decreasing; also recorded: relatively insensitive” and the “percentage of HSPC within the total viable cell population” value ([2]; cryopreserved in 5% DMSO versus fresh, FIG. 1A) was “increased with cryopreservation”. For the same molecule, the “total population of T cells (CD3+)” value ([2]; cryopreserved in 5% DMSO versus fresh, FIG. 1B) was “decreased; also recorded: reduced”, the “percentage of gd T cells” value ([2]; cryopreserved in 5% DMSO versus fresh, FIG. 1C) was “significant increase; also recorded: increased with cryopreservation” and the “percentage of CD4+/CD8+CDRA+CCL7+ naïve T cells” value ([2]; cryopreserved in 5% DMSO versus fresh, FIG. 1D and 1E) was “significantly decreased; also recorded: reduced”. The “percentage of NK cells” value ([2]; cryopreserved in 5% DMSO versus fresh, FIG. 1F) was “decreased following cryopreservation”.
